Laboratory results published in patent US7618641B2, “Functionally reconstituted viral membranes containing adjuvant” (priority 2003, dated 2009).

System: influenza proteins (A/Panama/2007/99)
Format: in vivo, Balb/C mice
Details: intranasal, day 0 and 14, 5 μg influenza proteins, lipopeptide in reconstituted membranes

N-palmitoyl-S-2,3(bispalmitoyloxy)-propyl-cysteinyl-seryl-(lysil)3-lysine [lysine derivative]
enhancement of the immune response: approximately equivalent enhancement of the immune response

N-palmitoyl-S-2,3(bispalmitoyloxy)-propyl-cysteinyl-seryl-(prolyl)3-proline [proline derivative]
enhancement of the immune response: approximately equivalent enhancement of the immune response
